Data as given in patent US9040091B2 (priority 2012, dated 2015).

Tests used:
[1] = Solubility of DTPA in neutral pH buffer, with and without zinc acetate; format: physicochemical
Protocol: As used herein, the terms “poorly absorbed drug,” “drug having low solubility,” and the like refer to a drug (in its neutral (i.e., uncharged) state) having a water solubility in neutral pH buffer of less than about 20 mg/ml. […] Thus, as used herein, DTPA (including DTPA and its salts, hydrates, solvates, complexes, etc.) is a poorly absorbed drug. […] In some embodiments, the present disclosure provides a pharmaceutical composition comprising a composition with improved aqueous solubility comprising a DTPA and zinc acetate composition of the present disclosure.

[2] = Americium-241 decorporation in dogs (urine, feces, tissue Am-241); format: in vivo, beagle dogs; conditions: daily dosing days 1-14, Zn-DTPA IV 15 mg/kg, NanoDTPA 1, 2 or 6 capsules/day or 2 capsules twice/day
Text: The objective of this study was to evaluate the dose-related efficacy of daily doses of NanoDTPA capsules in male and female beagle dogs intravenously (IV) administered a soluble citrate complex of americium-241 (Am-241). Twenty-four (24) male and female beagle dogs underwent a 14-day quarantine period for acclimation. Once released from quarantine, animals were weighed and randomized into study animals or spares. The average body weight of study animals was 8.6±0.9 kg (males 9.0±1.0 kg; females 8.2±0.7 kg). After randomization, animals were acclimated to metabolism cages for 24 hours prior to radionuclide administration. Animals received a single IV administration of 241Am(III)-citrate on Day 0. One day after radionuclide administration, one of four different doses of NanoDTPA capsules [1, 2, or 6-capsules/day or 2 capsules twice/day], IV Zn-DTPA [15 mg/kg] as a positive control, or IV saline as a placebo were administered. NanoDTPA capsules, IV Zn-DTPA, or IV saline was administered on study days 1-14. Urine and feces were collected daily. Animals were euthanized on day 21 and tissues collected. Urine, fecal, and tissue samples were analyzed for Am-241 content.

[3] = Americium-241 decorporation in rats (tissue levels and excretion); format: in vivo; conditions: NanoDTPA capsules PO 60 mg/kg DTPA; for liver total Am-241 activity: rat liver, Zn-DTPA IV 15 mg/kg DTPA, per 200 ul homogenized tissue
Protocol: The decorporation and excretion properties in rodents of oral NanoDTPA capsules at 60 mg/kg DTPA according to the present disclosure was compared to IV Zn-DTPA solution at 15 mg/kg DTPA, which is the currently licensed product available to the public. The studies were designed to provide data that systemic Am-241 at a single low dose followed by oral NanoDTPA capsules can provide a sufficient radiation dose reduction as an efficacy endpoint. All DTPA dosing was initiated 24 hours post-exposure to isotope (Am-241) in this set of studies to simulate a realistic emergency response time following exposure. Two sets of measurements were made: (1) internal tissue levels at 2, 4, and 7 days vs. (2) daily excreted concentrations in urine and feces.
There was a general trend of tissue reduction in all groups over the 3, 5, and 8 day observation period. All data are expressed as total Am-241 activity in nCi per 200 ul blood, homogenized tissue, or output (urine and feces).

[4] = Single dose pharmacokinetic testing, DTPA in blood of male beagle dogs; format: in vivo; conditions: 72 hours post-dose
Protocol: The objective of this study was to evaluate the concentration of DTPA in blood following a single administration with either Zn-DTPA injectable solution or NanoDTPA capsules using male beagle dogs. Single dose pharmacokinetic (PK) testing groups of Zn-DTPA solution vs. NanoDTPA capsules included nine study groups used for the PK testing. Zn-DTPA solution was delivered intravenously (IV) and by mouth (per os, PO) and NanoDTPA capsules were administered PO. […] Three formulations of NanoDTPA capsules were tested to examine different formulations of NanoDTPA powder and different capsule sizes. The dose for each NanoDTPA capsule formulation was either two or six capsules and the calculated DTPA doses confirmed based on the amount of DTPA in the capsules and body weight.

Row | SMILES | increase of the solubility of DTPA ([1]; about 10 mg/ml zinc acetate) | solubility of DTPA with zinc acetate ([1]; about 10 mg/ml zinc acetate) | increase of the solubility of DTPA ([1]; about 20 mg/ml zinc acetate) | solubility of DTPA with zinc acetate ([1]; about 20 mg/ml zinc acetate) | solubility in neutral pH buffer ([1]; neutral pH buffer, no additive) | Am-241 activity excreted in the urine compared to the saline placebo [2] | liver total Am-241 activity ([3]; after 2 doses, dosing from 24 h post-exposure) | liver total Am-241 activity ([3]; after 4 doses) | liver total Am-241 activity ([3]; after 7 doses) | tissue Am-241 concentrations compared to control animals receiving no DTPA treatment ([3]; rats, Zn-DTPA IV 15 mg/kg) | percent bioavailability ([4]; PO 6 mg DTPA/kg) | percent bioavailability ([4]; PO 60 mg DTPA/kg)
1 | O=C(O)CN(CCN(CC(=O)O)CC(=O)O)CCN(CC(=O)O)CC(=O)O [DTPA, diethylenetriaminepentaacetate] | about 35% | about 23.3 mg/ml | about 83% | about 31.5 mg/ml | < 17.2 mg/ml | – | – | – | – | – | – | –
2 | O=C([O-])CN(CCN(CC(=O)[O-])CC(=O)[O-])CCN(CC(=O)[O-])CC(=O)[O-].[Na+].[Na+].[Na+].[Zn+2] [Zn-DTPA] | – | – | – | – | – | approximately 9.4 times | 116.37+/−26.90 nCi | 81.70+/−11.53 nCi | 55.42+/−19.68 nCi | significantly lower | 12.26% | 12.67%
